Laboratory results published in patent US9555061B2, “Synthesis and analysis of compounds capable of inducing differentiation of human mesenchymal stems cells into hepatocytes” (National University Corporation Torrori University, priority 2011, dated 2017).

Key:
[1] = system: Wnt/β-catenin signaling pathway; assay: Luciferase assay in sorted bone marrow-derived mesenchymal stem cells; format: cell-based, human; conditions: 40 or 45 μM; 8 days after the treatment
Procedure: Human bone marrow mononuclear cells that had been purchased from Lonza Inc. were suspended in 1 ml of Hanks' balanced salt solution (HBSS, Gibco, Life Technologies Corp.) supplemented with a 100-fold diluted APC-labeled anti-CD90 antibody, a 407-fold diluted PE-labeled anti-CD271 antibody, and 2% fetal bovine serum (FBS, Defined, Thermo Fisher Scientific Inc.), and were stained on ice for 30 min. A flow cytometer (MoFlo XDP, Beckman Coulter Inc.) was used to selectively separate mesenchymal stem cells. The resulting cells were cultured in Dulbecco's Modified Eagle's Medium (Low Glucose, Gibco, Life Technologies Corp.) containing 20% FBS, 100 U/ml penicillin, […] streptomycin (Nacalai Tesque), and 20 ng/ml basic fibroblast growth factor (TRANS GENIC INC., Ltd.) on a 35-mm dish under conditions at 37° C. and 5% CO2. The medium was changed every 4 days. After colonies were formed, the cells were detached using a 0.025% trypsin/1 mM EDTA solution (Nacalai Tesque), split on a 100-mm dish, and cultured under conditions at 37° C. and 5% CO2. Then, the cells which were kept 70 to 80% confluent were detached using trypsin treatment. These cells in one dish were divided into four dishes for passage.
Cells were seeded on a 96-well plate at a cell density of 5.0×10^3 cells/cm^2. […]

UE7T-13 cells = assay: RT-PCR of genes encoding liver-specific secretory proteins and cytokines (UE7T-13); format: cell-based, human; conditions: hexachlorophene 0.8 μM or IC-2 15 μM; days 8, 16, 24
Procedure: Bone marrow-derived mesenchymal stem cells (UE7T-13 cells) were treated with a compound, hexachlorophene (H4625-25G; Sigma-Aldrich, Inc.) or IC-2. At that time, gene expression of each of liver-specific secretory proteins and cytokines was evaluated. […] This time point was set to day 0.
At the next day corresponding to day 1, the medium was changed to DMEM containing hexachlorophene at a final concentration of 0.8 μM or IC-2 at a final concentration of 15 μM. […] After that, the medium was replaced twice during 8 days, and the cells were subcultured every 8 days. Then, the similar operation was carried out until day 24. At days 8, 16, and 24 after the initiation of the induction, TRIzol (Invitrogen) was used to extract total RNA according to the attached instruction. After the extraction, deoxyribonuclease (Nippon Gene) was added, and the mixture was incubated at 37° C. for 30 min to remove DNA. In a reverse transcription reaction, SuperScriptII Reverse Transcriptase (Invitrogen) and Oligo(dT)15 primer were added to 1 μg of RNA to convert it into cDNA. In a RT-PCR method, the cDNA was diluted by 5 times. Next, 1 μl of the cDNA was used as a template. Then, rTaq DNA polymerase (TOYOBO) was used to amplify the cDNA. MQ water was used as a negative control. cDNA from Huh-7 or UE7T-13 cells was used as a positive control. […]

**Q.** For “(6S,9aS)-6-phenyl-8-naphthalen-1-ylmethyl-4,7-dioxo-hexahydro-pyrazino[1,2-a]pyrimidine-1-carbocylic acid benzylamide [IC-2]”, which “inhibition of the Wnt/β-catenin signaling pathway (luciferase activity)” value [1] is on record?
**A.** significantly inhibited

**Q.** What about the “expression of a plurality of the liver-specific secretory proteins and cytokines” value (UE7T-13 cells) of the same substance?
**A.** increased levels of expression
